Measured values: paper PMC6445160, “Naphthoquinone amino acid derivatives, synthesis and biological activity as proteasome inhibitors” (Journal of Enzyme Inhibition and Medicinal Chemistry, 2017)
Read-outs that look alike come from different tables or passages of the source.

Columns and labels:
Assay in all cases: fluorogenic AMC peptide hydrolysis
Type in all cases: biochemical
[1] = test system: T1, 20S proteasome β2 subunit, trypsin-like (T-L) activity; conditions: Boc-LRR-AMC, 37 °C, 30 min, enzyme pretreated with compound
T1 construct: gene PSMB7; native 20S proteasome purified from lymphoblastoid cells
Source text: fluorogenic AMC peptide hydrolysis on 20S proteasome β2 subunit, trypsin-like (T-L) activity

[2] = test system: T2, 20S proteasome β5 subunit, chymotrypsin-like (ChT-L) activity; conditions: Suc-LLVY-AMC, 37 °C, 30 min, enzyme pretreated with compound; read-out: IC50 (μm)^aChT-L
T2 construct: gene PSMB5; native 20S proteasome purified from lymphoblastoid cells
Source text: fluorogenic AMC peptide hydrolysis on 20S proteasome β5 subunit, chymotrypsin-like (ChT-L) activity

[3] = test system: T2, 20S proteasome β5 subunit, chymotrypsin-like (ChT-L) activity; conditions: Suc-LLVY-AMC, 37 °C, 30 min, enzyme pretreated with compound

Compound | IC50 [1] [µM] | IC50 [2] [µM] | IC50 [3] [µM]
O=C(N[C@@H](Cc1ccccc1)C(=O)NCCNC1=C(Cl)C(=O)c2ccccc2C1=O)c1ccc([N+](=O)[O-])cc1 [compound 10, NBz-Phe-NH-(CH2)2-NH-ClNafQ] | 35.4 ± 2.91 | 0.77 ± 0.06 | 
O=C(N[C@@H](CO)C(=O)NCCNC1=C(Cl)C(=O)c2ccccc2C1=O)c1ccccc1 [compound 15, Bz-Ser-NH-(CH2)2-NH-ClNafQ] | 53.8 ± 4.88 | 24.1 ± 1.98 | 
CC(C)C[C@H](NC(=O)c1cccc2ccccc12)C(=O)NCCCCNC1=C(Cl)C(=O)c2ccccc2C1=O [compound 20, 1-NaftCO-Leu-NH-(CH2)4-NH-ClNafQ] |  | 49.3 ± 5.02 | 
CC(C)C[C@H](NC(=O)c1ccc([N+](=O)[O-])cc1)C(=O)NCCNC1=C(Cl)C(=O)c2ccccc2C1=O [compound 2, NBz-Leu-NH-(CH2)2-NH-ClNafQ] | 65.3 ± 5.91 | > 100 | 
Cc1c(O)cccc1C(=O)N[C@@H](Cc1ccccc1)C(=O)NCCCCNC1=C(Cl)C(=O)c2ccccc2C1=O [compound 25, HMB-Phe-NH-(CH2)4-NH-ClNafQ] |  | 17.5 ± 1.07 | 
O=C1C(Cl)=C(NCCCCNC(=O)[C@H](Cc2ccccc2)NC(=O)c2cccc3ccccc23)C(=O)c2ccccc21 [compound 28, 1-NaftCO-Phe-NH-(CH2)4-NH-ClNafQ] | 79.7 ± 6.97 | 9.3 ± 1.02 | 
NC(=O)C[C@H](NC(=O)c1cccc2ccccc12)C(=O)NCCNC1=C(Cl)C(=O)c2ccccc2C1=O [compound 8, 1-NaftCO-Asn-NH-(CH2)2-NH-ClNafQ] | 35.2 ± 2.77 | 76.2 ± 6.82 | 
Cc1c(O)cccc1C(=O)N[C@@H](CC(N)=O)C(=O)NCCCCNC1=C(Cl)C(=O)c2ccccc2C1=O [compound 21, HMB-Asn-NH-(CH2)4-NH-ClNafQ] |  | 65.4 ± 6.5 | 
CC(C)C[C@H](NC(=O)c1ccccc1)C(=O)NCCCCNC1=C(Cl)C(=O)c2ccccc2C1=O [compound 19, Bz-Leu-NH-(CH2)4-NH-ClNafQ] |  | 10.1 ± 0.7 | 
O=C(NC(CO)C(=O)NCCNC1=C(Cl)C(=O)c2ccccc2C1=O)c1ccc([N+](=O)[O-])cc1 (stereo not drawn) [compound 14, NBz-Ser-NH-(CH2)2-NH-ClNafQ] | 63.4 ± 7.01 | 83.5 ± 8.03 | 
O=C(N[C@@H](Cc1ccccc1)C(=O)NCCCCNC1=C(Cl)C(=O)c2ccccc2C1=O)c1ccccc1 [compound 27, Bz-Phe-NH-(CH2)4-NH-ClNafQ] |  | 10.1 ± 0.7 | 
Cc1c(O)cccc1C(=O)N[C@@H](CC(C)C)C(=O)NCCNC1=C(Cl)C(=O)c2ccccc2C1=O [compound 1, HMB-Leu-NH-(CH2)2-NH-ClNafQ] | 77.4 ± 6.51 | > 100 | 
Cc1c(O)cccc1C(=O)N[C@@H](CO)C(=O)NCCNC1=C(Cl)C(=O)c2ccccc2C1=O [compound 13, HMB-Ser-NH-(CH2)2-NH-ClNafQ] | > 100 |  | > 100
NC(=O)C[C@H](NC(=O)c1ccc([N+](=O)[O-])cc1)C(=O)NCCNC1=C(Cl)C(=O)c2ccccc2C1=O [compound 6, NBz-Asn-NH-(CH2)2-NH-ClNafQ] | 17.2 ± 1.09 | 0.92 ± 0.09 | 
O=C1C(Cl)=C(NCCCCNC(=O)[C@H](CO)NC(=O)c2cccc3ccccc23)C(=O)c2ccccc21 [compound 32, 1-NaftCO-Ser-NH-(CH2)4-NH-ClNafQ] | 60.8 ± 4.88 | > 100 | 
CC(C)C[C@H](NC(=O)c1ccccc1)C(=O)NCCNC1=C(Cl)C(=O)c2ccccc2C1=O [compound 3, Bz-Leu-NH-(CH2)2-NH-ClNafQ] | 58.4 ± 5.13 | > 100 | 

Compound | IC50 [1] [µM] | IC50 [2] [µM] | IC50 [3] [µM]
CC(C)C[C@H](NC(=O)c1cccc2ccccc12)C(=O)NCCNC1=C(Cl)C(=O)c2ccccc2C1=O [compound 4, 1-NaftCO-Leu-NH-(CH2)2-NH-ClNafQ] | 21.1 ± 1.85 | 0.82 ± 0.08 | 
NC(=O)CC(NC(=O)c1ccc([N+](=O)[O-])cc1)C(=O)NCCCCNC1=C(Cl)C(=O)c2ccccc2C1=O (stereo not drawn) [compound 22, NBz-Asn-NH-(CH2)4-NH-ClNafQ] |  | 28.5 ± 3.05 | 
NC(=O)C[C@H](NC(=O)c1cccc2ccccc12)C(=O)NCCCCNC1=C(Cl)C(=O)c2ccccc2C1=O [compound 24, 1-NaftCO-Asn-NH-(CH2)4-NH-ClNafQ] |  | 78.3 ± 6.95 | 
O=C(NC(CO)C(=O)NCCCCNC1=C(Cl)C(=O)c2ccccc2C1=O)c1ccc([N+](=O)[O-])cc1 (stereo not drawn) [compound 30, NBz-Ser-NH-(CH2)4-NH-ClNafQ] | 83.3 ± 7.21 | 88.7 ± 8.03 | 
Cc1c(O)cccc1C(=O)N[C@@H](CO)C(=O)NCCCCNC1=C(Cl)C(=O)c2ccccc2C1=O [compound 29, HMB-Ser-NH-(CH2)4-NH-ClNafQ] | 80.2 ± 6.91 | 45.7 ± 2.59 | 
O=C1C(Cl)=C(NCCNC(=O)[C@H](CO)NC(=O)c2cccc3ccccc23)C(=O)c2ccccc21 [compound 16, 1-NaftCO-Ser-NH-(CH2)2-NH-ClNafQ] | > 100 |  | > 100
Cc1c(O)cccc1C(=O)N[C@@H](CC(N)=O)C(=O)NCCNC1=C(Cl)C(=O)c2ccccc2C1=O [compound 5, HMB-Asn-NH-(CH2)2-NH-ClNafQ] | 68.4 ± 5.14 | 8.47 ± 0.75 | 
O=C(N[C@@H](Cc1ccccc1)C(=O)NCCNC1=C(Cl)C(=O)c2ccccc2C1=O)c1ccccc1 [compound 11, Bz-Phe-NH-(CH2)2-NH-ClNafQ] | 53.2 ± 6.7 | 6.22 ± 0.48 | 
NC(=O)C[C@H](NC(=O)c1ccccc1)C(=O)NCCNC1=C(Cl)C(=O)c2ccccc2C1=O [compound 7, Bz-Asn-NH-(CH2)2-NH-ClNafQ] | 49.7 ± 3.87 | 7.99 ± 0.67 | 
Cc1c(O)cccc1C(=O)N[C@@H](CC(C)C)C(=O)NCCCCNC1=C(Cl)C(=O)c2ccccc2C1=O [compound 17, HMB-Leu-NH-(CH2)4-NH-ClNafQ] | > 100 | 11.5 ± 1.02 | 
Cc1c(O)cccc1C(=O)N[C@@H](Cc1ccccc1)C(=O)NCCNC1=C(Cl)C(=O)c2ccccc2C1=O [compound 9, HMB-Phe-NH-(CH2)2-NH-ClNafQ] | > 100 | 0.85 ± 0.07 | 
O=C1C(Cl)=C(NCCNC(=O)[C@H](Cc2ccccc2)NC(=O)c2cccc3ccccc23)C(=O)c2ccccc21 [compound 12, 1-NaftCO-Phe-NH-(CH2)2-NH-ClNafQ] | 49.8 ± 3.97 | 9.14 ± 1.02 | 
O=C(NC(Cc1ccccc1)C(=O)NCCCCNC1=C(Cl)C(=O)c2ccccc2C1=O)c1ccc([N+](=O)[O-])cc1 (stereo not drawn) [compound 26, NBz-Phe-NH-(CH2)4-NH-ClNafQ] |  | 9.1 ± 0.6 | 
O=C(N[C@@H](CO)C(=O)NCCCCNC1=C(Cl)C(=O)c2ccccc2C1=O)c1ccccc1 [compound 31, Bz-Ser-NH-(CH2)4-NH-ClNafQ] |  | 84.1 ± 6.08 | 
NBz-Leu-NH-(CH2)4-NH-ClNafQ [compound 18] |  | 8.4 ± 0.72 | 
NC(=O)C[C@H](NC(=O)c1ccccc1)C(=O)NCCCCNC1=C(Cl)C(=O)c2ccccc2C1=O [compound 23, Bz-Asn-NH-(CH2)4-NH-ClNafQ] |  | 24.2 ± 2.05 | 

Other lines, results leading:

IC50 [1] [µM] | IC50 [2] [µM] | IC50 [3] [µM] | Compound
 |  | > 100 | NBz-Ser-NH-cHx-NH-ClNafQ [compound 46]
 |  | > 100 | Bz-Ser-NH-cHx-NH-ClNafQ [compound 47]
 | 82.1 ± 6.52 |  | NBz-Phe-NH-cHx-NH-ClNafQ [compound 42]
 |  | > 100 | HMB-Phe-NH-cHx-NH-ClNafQ [compound 41]
 |  | > 100 | HMB-Asn-NH-cHx-NH-ClNafQ [compound 37]
 |  | > 100 | NBz-Asn-NH-cHx-NH-ClNafQ [compound 38]
 |  | > 100 | 1-NaftCO-Asn-NH-cHx-NH-ClNafQ [compound 40]
 |  | > 100 | 1-NaftCO-Phe-NH-cHx-NH-ClNafQ [compound 44]
 |  | > 100 | HMB-Leu-NH-cHx-NH-ClNafQ [compound 33]
 |  | > 100 | Bz-Asn-NH-cHx-NH-ClNafQ [compound 39]
 |  | > 100 | HMB-Ser-NH-cHx-NH-ClNafQ [compound 45]
 | 73.3 ± 3.9 |  | Bz-Phe-NH-cHx-NH-ClNafQ [compound 43]
 | 42.1 ± 5.02 |  | NBz-Leu-NH-cHx-NH-ClNafQ [compound 34]
 |  | > 100 | 1-NaftCO-Ser-NH-cHx-NH-ClNafQ [compound 48]
 | 59.3 ± 6.42 |  | 1-NaftCO-Leu-NH-cHx-NH-ClNafQ [compound 36]
 | 23.1 ± 1.7 |  | Bz-Leu-NH-cHx-NH-ClNafQ [compound 35]
